Laboratory results as given in patent US20050214336A1, “Parasite control in animals” (priority 2002, published 2005).

Test system: Musca domestica first instars
Experiment: Development of Musca domestica larvae on cattle dung following oral treatment of the animal (feed-through test)
Type: in vivo
Settings: cattle 300 kg, 3 g active compound in capsule on three consecutive days, dung samples
Text: Test for the development of Musca domestica larvae on cattle dung following oral treatment of the animal with active-compound-comprising formulation (feed-through test) Cattle 300 kg in weight are fed on three consecutive days with in each case 3 g of active compound in a capsule formulation. Dung samples of treated animals are populated with Musca domestica first instars, and the development into adult flies was monitored in comparison with the development of dung samples of an untreated control. Those substances which reliably prevent the development of adults over a period of four weeks are assessed as active.

## CCC(C)(C)C(=O)OC1=C(c2ccc(Cl)cc2Cl)C(=O)OC12CCCCC2 [compound A, 2,2-dimethyl-, 3-(2,4-dichlorophenyl)-2-oxo-1-oxaspiro[4,5]dec-3-en-4-yl-butanoate]
After day 3, long-term (period of four weeks)
  long-term activity (prevention of development into adult flies): 100%
Up to day 3 after the treatment
  activity (prevention of development into adult flies): 50%
